In the assay the test system is CD2F1 mice, L1210 leukemia ip, survival T/C. Nature of the assay: NCI In Vivo Anticancer Drug Screen. Data for tumor model L1210 Leukemia (intraperitoneal) in CD2F1 (CDF1) mice. The settings on record: higher = longer survival. The method in brief:
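Compound-dosed mice with transplantable tumor versus matched vehicle controls; endpoint ratio T/C reported.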

[1] abbreviates: endpoint: median survival time, dose: 6.25 mg/kg/injection, schedule: Q01DX005 (ip), vehicle: saline.
Where [2] appears, read: endpoint: mean survival time, dose: 50.0 mg/kg/injection, schedule: Q01DX009 (ip), vehicle: Klucel (hydroxypropylcellulose) (HPC).
The mark [3] stands for this setting: endpoint: mean survival time, dose: 100.0 mg/kg/injection, schedule: Q01DX009 (ip), vehicle: Klucel (hydroxypropylcellulose) (HPC).
The mark [4] stands for this setting: endpoint: mean survival time, dose: 200.0 mg/kg/injection, schedule: Q01DX009 (ip), vehicle: Klucel (hydroxypropylcellulose) (HPC).
The mark [5] stands for this setting: endpoint: mean survival time, dose: 50.0 mg/kg/injection, schedule: Q01DX009 (ip), vehicle: saline with Tween-80.
[6] abbreviates: endpoint: mean survival time, dose: 100.0 mg/kg/injection, schedule: Q01DX009 (ip), vehicle: saline with Tween-80.
[7] abbreviates: endpoint: mean survival time, dose: 200.0 mg/kg/injection, schedule: Q01DX009 (ip), vehicle: saline with Tween-80.
[8] abbreviates: endpoint: mean survival time, dose: 12.5 mg/kg/injection, schedule: Q01DX001 (ip), vehicle: Klucel (hydroxypropylcellulose) (HPC).
[9] abbreviates: endpoint: mean survival time, dose: 100.0 mg/kg/injection, schedule: Q04DX002 (ip), vehicle: saline with Tween-80.
[10] abbreviates: endpoint: mean survival time, dose: 200.0 mg/kg/injection, schedule: Q04DX002 (ip), vehicle: saline with Tween-80.
The mark [11] stands for this setting: endpoint: mean survival time, dose: 25.0 mg/kg/injection, schedule: Q01DX009 (ip), vehicle: saline with Tween-80.
Where [12] appears, read: endpoint: mean survival time, dose: 50.0 mg/kg/injection, schedule: Q04DX002 (ip), vehicle: saline with Tween-80.

“And” between values parts separate entries of the source, which are not always exact repeats. Equal entries are not always repeated. Toxic doses and inconclusive results are not listed.

As for `CCC1(O)C(=O)OCc2c1cc1n(c2=O)Cc2cc3cc(N)ccc3nc2-1` (configuration not stated), the T/C was 243 % of control (endpoint: median survival time, dose: 1.35 mg/kg/injection, schedule: Q01DX005 (ip), vehicle: saline); 188 % of control (endpoint: median survival time, dose: 1.87 mg/kg/injection, schedule: Q01DX005 (ip), vehicle: saline); 158 % of control (endpoint: median survival time, dose: 2.0 mg/kg/injection, schedule: Q04DX002 (ip), vehicle: saline); 243 % of control (endpoint: median survival time, dose: 2.25 mg/kg/injection, schedule: Q01DX005 (ip), vehicle: saline); 271 % of control and 365 % of control (endpoint: median survival time, dose: 3.75 mg/kg/injection, schedule: Q01DX005 (ip), vehicle: saline); 157 % of control and 170 % of control (endpoint: median survival time, dose: 4.0 mg/kg/injection, schedule: Q04DX002 (ip), vehicle: saline). The T/C by setting is: under setting [1], 90 % of control; (endpoint: median survival time, dose: 7.5 mg/kg/injection, schedule: Q01DX005 (ip), vehicle: saline) 123 % of control; (endpoint: median survival time, dose: 8.0 mg/kg/injection, schedule: Q04DX002 (ip), vehicle: saline) 256 % of control and 329 % of control; (endpoint: median survival time, dose: 15.0 mg/kg/injection, schedule: Q01DX005 (ip), vehicle: saline) 100 % of control; (endpoint: median survival time, dose: 16.0 mg/kg/injection, schedule: Q04DX002 (ip), vehicle: saline) 243 % of control and 329 % of control; (endpoint: median survival time, dose: 30.0 mg/kg/injection, schedule: Q01DX005 (ip), vehicle: saline) 88 % of control. For the same compound, the T/C (endpoint: median survival time, dose: 32.0 mg/kg/injection, schedule: Q04DX002 (ip), vehicle: saline) was 268 % of control.
Regarding `Cc1ccc(S(=O)(=O)N/N=C/c2ccncc2)cc1`, the T/C is, setting by setting: (endpoint: mean survival time, dose: 25.0 mg/kg/injection, schedule: Q01DX009 (ip), vehicle: Klucel (hydroxypropylcellulose) (HPC)) 104 % of control; under setting [2], 105 % of control; under setting [3], 98 % of control; under setting [4], 98 % of control.
As for `O=COC1CC2CC1C1CCCC21` (configuration not stated), the T/C runs as follows: under setting [5], 95 % of control; under setting [6], 93 % of control; under setting [7], 97 % of control.
As to `COc1ccc(/C=C2/CCOC2=O)cc1`, the T/C (endpoint: mean survival time, dose: 3.12 mg/kg/injection, schedule: Q01DX001 (ip), vehicle: Klucel (hydroxypropylcellulose) (HPC)) was 104 % of control; the T/C (endpoint: mean survival time, dose: 3.12 mg/kg/injection, schedule: Q04DX002 (ip), vehicle: Klucel (hydroxypropylcellulose) (HPC)) is 103 % of control; the T/C (endpoint: mean survival time, dose: 6.25 mg/kg/injection, schedule: Q01DX001 (ip), vehicle: Klucel (hydroxypropylcellulose) (HPC)) is 102 % of control; the T/C (endpoint: mean survival time, dose: 6.25 mg/kg/injection, schedule: Q04DX002 (ip), vehicle: Klucel (hydroxypropylcellulose) (HPC)) was 100 % of control; the T/C under setting [8] was 116 % of control; the T/C (endpoint: mean survival time, dose: 12.5 mg/kg/injection, schedule: Q04DX002 (ip), vehicle: Klucel (hydroxypropylcellulose) (HPC)) is 107 % of control.
Regarding `CCOC(=O)C1(C(=O)OCC)CCC(OCC)N1C(=O)c1cc2c(cc1[N+](=O)[O-])OCO2` (configuration not stated), the T/C was 97 % of control under setting [2], 101 % of control under setting [3] and 97 % of control under setting [4].
On to `CC(=O)Nc1cccc(/C=C/C=C/c2cccc([N+](=O)[O-])c2)c1`, for which the T/C (endpoint: mean survival time, dose: 100.0 mg/kg/injection, schedule: Q01DX001 (ip), vehicle: Klucel (hydroxypropylcellulose) (HPC)) is 103 % of control; the T/C (endpoint: mean survival time, dose: 200.0 mg/kg/injection, schedule: Q01DX001 (ip), vehicle: Klucel (hydroxypropylcellulose) (HPC)) is 97 % of control; the T/C (endpoint: mean survival time, dose: 400.0 mg/kg/injection, schedule: Q01DX001 (ip), vehicle: Klucel (hydroxypropylcellulose) (HPC)) is 90 % of control.
On to `O=C1NCCN1c1ccc([N+](=O)[O-])cc1`, for which the T/C is 89 % of control (endpoint: mean survival time, dose: 12.5 mg/kg/injection, schedule: Q01DX009 (ip), vehicle: other); 103 % of control (endpoint: mean survival time, dose: 25.0 mg/kg/injection, schedule: Q01DX009 (ip), vehicle: other); 94 % of control (endpoint: mean survival time, dose: 50.0 mg/kg/injection, schedule: Q01DX009 (ip), vehicle: other); 96 % of control (endpoint: mean survival time, dose: 100.0 mg/kg/injection, schedule: Q01DX009 (ip), vehicle: other); 96 % of control (endpoint: mean survival time, dose: 200.0 mg/kg/injection, schedule: Q01DX009 (ip), vehicle: other).
Consider `CCCC(C#N)(CCC)C(=O)OCC`, for which the T/C is, setting by setting: under setting [8], 102 % of control; (endpoint: mean survival time, dose: 25.0 mg/kg/injection, schedule: Q01DX001 (ip), vehicle: Klucel (hydroxypropylcellulose) (HPC)) 99 % of control; (endpoint: mean survival time, dose: 50.0 mg/kg/injection, schedule: Q01DX001 (ip), vehicle: Klucel (hydroxypropylcellulose) (HPC)) 99 % of control.
For `CCOC(=O)C/C(C)=C/c1ccccc1` (tested in a mixture with another compound), the T/C (endpoint: mean survival time, dose: 100.0 mg/kg/injection, schedule: Q01DX001 (ip), vehicle: saline with Tween-80) was 95 % of control; the T/C under setting [9] was 98 % of control; the T/C (endpoint: mean survival time, dose: 200.0 mg/kg/injection, schedule: Q01DX001 (ip), vehicle: saline with Tween-80) is 87 % of control; the T/C under setting [10] was 90 % of control; the T/C (endpoint: mean survival time, dose: 400.0 mg/kg/injection, schedule: Q01DX001 (ip), vehicle: saline with Tween-80) was 94 % of control; the T/C (endpoint: mean survival time, dose: 400.0 mg/kg/injection, schedule: Q04DX002 (ip), vehicle: saline with Tween-80) is 110 % of control.
As to `O=C(CN1CCCCC1Cl)c1ccccc1` (configuration not stated), the T/C is 102 % of control under setting [11], 96 % of control under setting [5] and 102 % of control under setting [6].
On to `O=NNc1cccc(NN=O)n1`, for which the T/C by setting is: under setting [1], 115 % of control and 108 % of control; (endpoint: median survival time, dose: 12.5 mg/kg/injection, schedule: Q01DX005 (ip), vehicle: saline) 121 % of control; (endpoint: median survival time, dose: 29.0 mg/kg/injection, schedule: Q01DX005 (ip), vehicle: saline) 153 % of control; (endpoint: median survival time, dose: 44.0 mg/kg/injection, schedule: Q01DX005 (ip), vehicle: saline) 166 % of control; (endpoint: median survival time, dose: 100.0 mg/kg/injection, schedule: Q01DX005 (ip), vehicle: saline) 122 % of control and 91 % of control and 98 % of control.
As to `Nc1ncnc2c1c(-c1nnc3c(n1)-c1ccccc1C3=O)cn2C1OC(CO)C(O)C1O` (configuration not stated), the T/C runs as follows: (endpoint: mean survival time, dose: 100.0 mg/kg/injection, schedule: Q01DX005 (ip), vehicle: saline) 100 % of control; (endpoint: mean survival time, dose: 200.0 mg/kg/injection, schedule: Q01DX005 (ip), vehicle: saline) 100 % of control.
For the compound `CC(=O)Nc1ccccc1OC(=O)c1ccccc1`, the T/C was 97 % of control under setting [5]; 97 % of control under setting [6]; 101 % of control (endpoint: mean survival time, dose: 100.0 mg/kg/injection, schedule: Q04DX003 (ip), vehicle: saline with Tween-80); 97 % of control under setting [7]; 95 % of control (endpoint: mean survival time, dose: 200.0 mg/kg/injection, schedule: Q04DX003 (ip), vehicle: saline with Tween-80).
For `CCOP(=S)(N=C=S)OCC`, the T/C runs as follows: (endpoint: mean survival time, dose: 25.0 mg/kg/injection, schedule: Q04DX002 (ip), vehicle: saline with Tween-80) 98 % of control; under setting [12], 90 % of control.
In the case of `CC(=O)SCC1C(=O)n2c(cc3ccccc32)C(=O)N1C` (configuration not stated), the T/C under setting [12] was 89 % of control, the T/C under setting [9] was 96 % of control and the T/C under setting [10] was 101 % of control.
On to `COc1ccc(-c2cc(C(=O)Nc3cc(C(F)(F)F)cc(C(F)(F)F)c3)c3ccccc3n2)cc1`, for which the T/C is 100 % of control (endpoint: median survival time, dose: 25.0 mg/kg/injection, schedule: Q01DX005 (ip), vehicle: DMSO); 98 % of control (endpoint: median survival time, dose: 50.0 mg/kg/injection, schedule: Q01DX005 (ip), vehicle: DMSO); 98 % of control (endpoint: median survival time, dose: 100.0 mg/kg/injection, schedule: Q01DX005 (ip), vehicle: DMSO); 109 % of control (endpoint: median survival time, dose: 200.0 mg/kg/injection, schedule: Q01DX005 (ip), vehicle: DMSO); 106 % of control (endpoint: median survival time, dose: 400.0 mg/kg/injection, schedule: Q01DX005 (ip), vehicle: DMSO).
In the case of `[Cl][Pt+2][Cl].[NH-]C1CCCC1.[NH2-]`, the T/C is 106 % of control (endpoint: mean survival time, dose: 0.39 mg/kg/injection, schedule: Q04DX003 (ip), vehicle: water); 122 % of control (endpoint: mean survival time, dose: 0.78 mg/kg/injection, schedule: Q04DX003 (ip), vehicle: water); 182 % of control (endpoint: mean survival time, dose: 3.12 mg/kg/injection, schedule: Q04DX003 (ip), vehicle: saline with Tween-80); 156 % of control (endpoint: mean survival time, dose: 3.13 mg/kg/injection, schedule: Q04DX003 (ip), vehicle: water).
Turning to `CC1=NN(c2ccccc2)C(=O)C1(Br)Br`, the T/C by setting is: under setting [11], 96 % of control; under setting [5], 98 % of control.
